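Exposure lasted 48 hours, with cells grown in 96-well plates and compounds tested at five concentrations. TGI: concentration producing complete growth inhibition.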
Experiments:
Test in all cases: inhibition of tumour cell growth, NCI panel, 48 h
A549 NSCLC = test system: A549 NSCLC
U251 CNS = test system: U251 CNS
SF-268 CNS = test system: SF-268 CNS
LOX IMVI melanoma = test system: LOX IMVI melanoma
ACHN renal = test system: ACHN renal
NCI-H522 lung = test system: NCI-H522 lung
T-47D breast = test system: T-47D breast
CCRF-CEM leukemia = test system: CCRF-CEM leukemia
HCT-15 colon = test system: HCT-15 colon
MDA-MB-231 breast = test system: MDA-MB-231 breast
SF-295 CNS = test system: SF-295 CNS
MALME-3M melanoma = test system: MALME-3M melanoma
OVCAR-5 ovarian = test system: OVCAR-5 ovarian
IGROV1 ovarian = test system: IGROV1 ovarian
HS 578T breast = test system: HS 578T breast
MCF7 breast = test system: MCF7 breast
EKVX NSCLC = test system: EKVX NSCLC
K-562 leukemia = test system: K-562 leukemia
UACC-62 melanoma = test system: UACC-62 melanoma
KM12 colon = test system: KM12 colon
PC-3 prostate = test system: PC-3 prostate
OVCAR-4 ovarian = test system: OVCAR-4 ovarian
OVCAR-3 ovarian = test system: OVCAR-3 ovarian
BT-549 breast = test system: BT-549 breast
HCT-116 colon = test system: HCT-116 colon
SK-MEL-5 melanoma = test system: SK-MEL-5 melanoma
SK-MEL-2 melanoma = test system: SK-MEL-2 melanoma
SW-620 colon = test system: SW-620 colon
NCI-H23 lung = test system: NCI-H23 lung
MDA-N = test system: MDA-N
OVCAR-8 ovarian = test system: OVCAR-8 ovarian
TK-10 renal = test system: TK-10 renal
MDA-MB-435 = test system: MDA-MB-435
M14 melanoma = test system: M14 melanoma
HT29 colon = test system: HT29 colon
HCC-2998 colon = test system: HCC-2998 colon
A498 renal = test system: A498 renal
SNB-19 CNS = test system: SNB-19 CNS
DU-145 prostate = test system: DU-145 prostate
786-0 renal = test system: 786-0 renal
MOLT-4 leukemia = test system: MOLT-4 leukemia
SN12C renal = test system: SN12C renal
UO-31 renal = test system: UO-31 renal
RXF 393 renal = test system: RXF 393 renal
UACC-257 melanoma = test system: UACC-257 melanoma
HOP-62 NSCLC = test system: HOP-62 NSCLC
SNB-75 CNS = test system: SNB-75 CNS
NCI-H226 lung = test system: NCI-H226 lung
CAKI-1 renal = test system: CAKI-1 renal
COLO 205 colon = test system: COLO 205 colon
SK-MEL-28 melanoma = test system: SK-MEL-28 melanoma
HOP-92 NSCLC = test system: HOP-92 NSCLC
NCI/ADR-RES ovarian = test system: NCI/ADR-RES ovarian
NCI-H460 lung = test system: NCI-H460 lung
SK-OV-3 ovarian = test system: SK-OV-3 ovarian
HL-60(TB) leukemia = test system: HL-60(TB) leukemia
SF-539 CNS = test system: SF-539 CNS

## Cc1c2oc3c(C)cnc(C(=O)NC4C(=O)NC(C(C)C)C(=O)N5CCCC5C(=O)N(C)CC(=O)N(C)C(C(C)C)C(=O)OC4C)c3nc-2c(C(=O)NC2C(=O)NC(C(C)C)C(=O)N3CCCC3C(=O)N(C)CC(=O)N(C)C(C(C)C)C(=O)OC2C)c(N)c1=O (configuration not stated)
A549 NSCLC
  TGI: > 75 µM
U251 CNS
  TGI: > 38 µM
SF-268 CNS
  TGI: 24.4 µM
LOX IMVI melanoma
  TGI: 10.3 µM
ACHN renal
  TGI: > 64.6 µM
NCI-H522 lung
  TGI: 18 µM
T-47D breast
  TGI: > 53.4 µM
CCRF-CEM leukemia
  TGI: 5.44 µM
HCT-15 colon
  TGI: > 75 µM
MDA-MB-231 breast
  TGI: 41.3 µM
SF-295 CNS
  TGI: 39.9 µM
MALME-3M melanoma
  TGI: 16.6 µM
OVCAR-5 ovarian
  TGI: > 75 µM
IGROV1 ovarian
  TGI: > 75 µM
HS 578T breast
  TGI: 19.5 µM
MCF7 breast
  TGI: > 75 µM
EKVX NSCLC
  TGI: > 75 µM
K-562 leukemia
  TGI: 2.36 µM
UACC-62 melanoma
  TGI: 12.4 µM
KM12 colon
  TGI: 61.1 µM
PC-3 prostate
  TGI: > 47.1 µM
OVCAR-4 ovarian
  TGI: 73.5 µM
OVCAR-3 ovarian
  TGI: > 58.2 µM
BT-549 breast
  TGI: 33.5 µM
HCT-116 colon
  TGI: > 35.5 µM
SK-MEL-5 melanoma
  TGI: 21.6 µM
SK-MEL-2 melanoma
  TGI: 10.4 µM
SW-620 colon
  TGI: > 53.3 µM
NCI-H23 lung
  TGI: > 54.8 µM
MDA-N
  TGI: 16.9 µM
OVCAR-8 ovarian
  TGI: > 44.5 µM
TK-10 renal
  TGI: > 75 µM
MDA-MB-435
  TGI: 16.7 µM
M14 melanoma
  TGI: 16.8 µM
HT29 colon
  TGI: > 75 µM
HCC-2998 colon
  TGI: 15.7 µM
A498 renal
  TGI: 29.8 µM
SNB-19 CNS
  TGI: > 68.4 µM
DU-145 prostate
  TGI: > 75 µM
786-0 renal
  TGI: > 75 µM
MOLT-4 leukemia
  TGI: 0.675 µM
SN12C renal
  TGI: > 70.1 µM
UO-31 renal
  TGI: 51 µM
RXF 393 renal
  TGI: 18.8 µM
UACC-257 melanoma
  TGI: 33.8 µM
HOP-62 NSCLC
  TGI: > 57.7 µM
SNB-75 CNS
  TGI: 21.3 µM
NCI-H226 lung
  TGI: 23.8 µM
CAKI-1 renal
  TGI: 73 µM
COLO 205 colon
  TGI: 14.2 µM
SK-MEL-28 melanoma
  TGI: 30.3 µM
HOP-92 NSCLC
  TGI: 36 µM
NCI/ADR-RES ovarian
  TGI: > 75 µM
NCI-H460 lung
  TGI: > 24.6 µM
SK-OV-3 ovarian
  TGI: 61.5 µM
HL-60(TB) leukemia
  TGI: > 26 µM
SF-539 CNS
  TGI: 17.7 µM
